Legend:
[1] = test system: wound region of rabbit ears (granulation tissue, capillaries); assay: In vivo wound healing assay (rabbit ear wounds); parameters: species or system New Zealand White rabbits; details: for Area of granulation tissue / Number of blood vessels / increment of the area of granulation tissue, in words / increment of the number of blood vessels, in words: 5 μM; for Area of granulation tissue / Number of blood vessels: spotted or injected intradermally to wound, negative control = 100%; for increment of the area of granulation tissue, in words / increment of the number of blood vessels, in words: comment on Table 1
Protocol: Female New Zealand White rabbits (body weight 2.0 kg) were used as experimental animals in this assay. PBS solution containing 0.1% BSA (BSA-PBS solution) was prepared as control solution for negative control group (comparative example 1). sphingosylphosphorylcholine (comparative example 2), phytosphingosine (comparative example 3), N-acethylphytosphingosine (comparative example 4) as positive control group, and tetraacetyl phytosphingosine (example 1) were dissolved in ethanol or methanol respectively. Each portion of the solutions was added to silicone glass tube. Then, it was charged with N2 gas, and added 0.1% BSA-PBS solution. After coupling them with water sonicator and vortex, these solutions were spotted on and injected intradernally to wound region of experimental animals. At the same time, to study an effect of the angiogenesis as concentrations of tetraacethylsphingosine, the animal was treated with 0.1 μM, 1 μM, 2 μM and 5 μM of tetraacethylsphingosine, and campared with the results. Experimental animals were put into special stainless cages which was designed suitably to assay experimental animals, anesthetized by injecting ketanine (3-4 mg/kg) intramuscularly. The hair and corneous tissue of innerside of both ears were removed with shaving and washing, and then were disinfected with 70% ethanol. Four wound regions per ear were formed by using 6 mm punch for sldn histological examination (Stiefel, Germany) under sterile condition if possible, and each wound region was spotted or injected intradennally 30-50 μl of the control solution or each treatment material. Wound regions were sealed with cathereep (Nichiban Co., Tokyo Japan) which was cut in size which are greater than that of wound region to prevent contamination of the wound regions and formation of crust. Then, the wound regions were protected with 2×2 gauze, and ears of rabbit were bandaged with elastopore (Nichiban Co., Tokyo Japan). Subsequently, the rabbits were bred in a cage per a rabbit. After 48 hrs, same procedure was repeated. On 4 days and 8 days after forming wound regions, sacrificing the rabbits and treating tissue for histological study. For histological study, wound tissues were fixed with 10% formalin, cut it in half longitudinally and made paraffin block. Then, approximately 5 μm of segment was made, attached it to slide and stained with hematoxylin and eosin to observe a change of epidermis and dermis, and stained with Massons Trichrome to observe a degree of collagen formation of granulation tissue.
First, stained tissue specimen was calibrated with ocular micrometer of optical microscope for image analysis. Then, After photographing each histological change aspects with digital camera under 40× and 100× objective lens and saving them on computer (Pentium III), image analysis was carried out with Scion Image for Windows software which was provided by (C) 2000 Scion corporation as follows: that is, degree of epidermis migration could be determined by measuring the distance from left to right boundary of wound, and thickness of newly formed epidermis could be determined by measuring the thickness of three spots in 1 mm of pitch and averaging measured values. To compare with degree of granulation tissue formation of dermis, three methods were used: 1) A method of measuring total area of newly formed granulation tissue and comparing with it; 2) A method of counting the number of cells such as fibroblast presented in six spots of center region of wound under high magnification (100×) and comparing with it; and 3) A method of determining degree of angiogenesis by counting the number of capillaries in granulation tissue in a same way as described above. If there was eschar, it wasn't determined. The data obtained from the negative control group, the positive control group and the experinental group were analyzed statistically by carrying out paired student's t test. […]

[2] = test system: HUVEC (human umbilical vein endothelial cell); assay: Angiogenesis test of HUVEC (tube formation test); format: cell-based; details: FIG. 4 and FIG. 5
Protocol: Above suspension procedure was repeated twice.
Matrigel was prepared as follows: First, collagen solution was prepared by mixing commercially available acid-soluble porcine type I collagen (3.0 mg/ml), 5× DMEM and buffer (0.05 N NaOH, 2.2% NaHCO3, 200 mM HEPES; 7:2:1), loaded to 24 well or 96 well (100-300 μl/well) dividedly, and then incubated for approximately 10 mins to form a gel due to polymerization of collagen. Primary culture was carried to obtain HUVEC (those which were passaged five times), removed cells at 37° C., washed cells with PBS, detached cells with trypsin/EDTA, loaded cells to wells (4-6×10^4 cells/well), and then fiuther incubated for 12-18 hrs.

endothelial cells = assay: Migration assay of endothelial cells (Transwell); format: cell-based; details: 0.1 μM, 1 μM and 5 μM; 2 hrs; fewer migrated cells with increasing concentration; FIG. 6 and FIG. 7
Protocol: Transwell membranes were coated with 0.2% gelatin, and then were left for 12 hrs at 4° C. The membrane for control group was treated with BSA-PBS as described in the above examples, whereas the membranes for experimental group were treated with 0.1 μM, 1 μM and 5 μM of tetraacetylphytosphingosine solution according to the present invention respectively as described in the above examples. After incubating these membranes for 2 hrs, staining them with Diff Quick solution, and then observing them on slide glass.

Row | Compound | Area of granulation tissue [1] | Number of blood vessels [1] | increment of the area of granulation tissue, in words [1] | increment of the number of blood vessels, in words [1] | number of blood vessels (angiogenesis), in words ([1]; 0.1 μM, 1 μM, 2 μM and 5 μM, 4 days after treatment, vs negative control, FIG. 1) | area of granulation tissue, in words ([1]; 0.1 μM, 1 μM, 2 μM and 5 μM, 4 days after treatment, vs negative control, FIG. 2) | formation of blood vessels (tube formation), in words ([2]; 0.1 μM) | formation of blood vessels (tube formation), in words ([2]; 1 μM) | migration of endothelial cells, in words (endothelial cells)
1 | CCCCCCCCCCCCCC[C@@H](O)[C@@H](O)[C@H](CO)NC(C)=O [NAPS, N-acethylphytosphingosine] | 212% | 96% | – | – | – | – | – | – | –
2 | CCCCCCCCCCCCCC[C@@H](O)[C@@H](O)[C@@H](N)CO [PS, phytosphingosine] | 112% | 106% | – | – | – | – | – | – | –
3 | CCCCCCCCCCCCC/C=C/[C@@H](O)[C@@H](N)COP(=O)([O-])OCC[N+](C)(C)C [SPC, sphingosylphosphorylcholine] | 151% | 148% | prompted increment | prompted increment | – | – | – | – | –
4 | tetraacetylphytosphingosine [TAPS] | 76% | 31% | inhibited increment | inhibited increment | inhibited angiogenesis greatly | decreased the area of granulation tissue | inhibited effectively a formation of blood vessels | inhibited nearly completely a formation of blood vessels | migration of endothelial cells were inhibited

Source: patent US20060025377A1, “Inhibitor of angiogenesis and kit for treating cancer comprising the inhibitor” (priority 2002, published 2006)
